Results taken from US4771041A, “Method for combating virus infection” (priority 1976, dated 1988).

Legend:
[1] = molecular target: calf thymus DNA dependent RNA polymerase fraction A (DCA) (Bos taurus, UniProt A6QLS0+E1BIX2); assay: Inhibition of calf thymus DNA dependent RNA polymerase fraction A; format: biochemical
Experimental: (§1) Polymerases, nucleic acid template nucleoside triphosphates, of which guanosine triphosphate is tritium-labelled, salt and buffer are mixed at 0° C. in a total volume of 125 μl (for herpes DNA polymerase, see F. below). The concentrations of the nucleoside triphosphates UTP (uridine triphosphate), CTP (cytidinetriphosphate), GTP (guanosinetriphosphate) and ATP (adenosinetriphosphate) were generall 400, 400, 400, and 2000 μM, respectively. The test compound is also added in various concentrations to the mixture obtained. A standard mixture without test compound is also prepared using the same amounts of the ingredients. The enzyme reaction, i.e. synthesis of nucleic acid, is started by incubating the mixture at 37° C. For influenza RNA polymerases the temperature is 33° C. The reaction is allowed to proceed for 60 minutes in the assay of influenza and Micrococcus polymerases. […] The incorporation of labelled monomer into trichloroacetic acid insoluble nucleic acid product was measured in the following way. […] After drying the discs are measured for radioactivity in a liquid scintillation counter. The difference in radioactivity between samples with and without added compound is used to calculate the inhibition of the polymerase activity. The inhibition is expressed as percentage inhibition using the radioactivity of the standard sample as basis. […]

[2] = molecular target: Micrococcus luteus DNA dependent DNA polymerase (Micrococcus luteus, UniProt C5CBM1); assay: Inhibition of Micrococcus luteus DNA dependent DNA polymerase; format: biochemical
Experimental: as §1

[3] = test system: reverse transcriptase from RMuLV; assay: Cell-free reverse transcriptase inhibition, RMuLV; format: biochemical, Rauscher murine leukemia virus; details: template/primer (rA)n.(dT)10
Experimental: (§2) Reverse transcriptase from various retroviruses have been tested in cell-free assays for inhibition by phosphonoformic acid and phosphonoacetic acid. The assay conditions have been described by Collaborative Research, Inc, 1365 Main Street, Waltham, Mass., USA "Assay kit for mammalian viral reverse transcriptase". BLV and VV were prepared in this laboratory and all other viruses and viral enzyme were obtained from Dr. K Nilsson, Department of Pathology, University of Uppsala and from Boehringer Mannheim, Germany. Phosphonoformic acid (PFA) and phosphonoacetic acid (PAA) were added at pH 7.2 to the reaction mixtures at the start of the reaction.
(§3) Rauscher murine leukemia virus; RMuLV, visna virus; VV, avian myeloblastosis virus; AMV, bovine leukemia virus; BLV, baboon endogenous virus; BaEV, simian sarcoma virus; SSV.

[4] = molecular target: T1, reverse transcriptase from BLV (Bovine leukemia virus, UniProt P03361); assay: Cell-free reverse transcriptase inhibition, BLV; format: biochemical; details: template/primer (rA)n.(dT)10, read-out: Percent inhibition
T1 construct: Reverse transcriptase from various retroviruses have been tested in cell-free assays; made in house
Experimental: as §2, §3

[5] = molecular target: T2, reverse transcriptase from SSV (Woolly monkey sarcoma virus, UniProt P03359); assay: Cell-free reverse transcriptase inhibition, SSV; format: biochemical, simian sarcoma virus; details: template/primer (rA)n.(dT)10, read-out: Percent inhibition
T2 construct: Reverse transcriptase from various retroviruses have been tested in cell-free assays
Experimental: as §2, §3

HTLV-III = HTLV-III replication in H9 cells; format: cell-based; details: Human immunodeficiency virus 1, 144 h
Experimental: H9 cells constitute a human cell line that can be chronically infected with HTLV-III virus. (Science 1984; 224: 497-500). H9 cells were treated with polybrene (2 μg/ml) for 30 min. at 37° C., washed free of polybrene and infected with 2×10^8 HTLV-III virus particles per 4×10^5 H9 cells. […] The cultures were analyzed for HTLV-III reverse transcriptase activity as described above.

[6] = guinea pig, in vivo
Experimental: Phosphonoformic acid and phosphonoacetic acid were used as their trisodium and disodium salts, respectively. The test substances were used in 1% solutions.
Guinea-pigs of the Dunkin-Hartley strain of both sexes and weighing 200-300 g were used. The back of the animal was shaved and depilated with Opilca® on the day before starting the application of the solutions. The back was divided into six squares in the middle of which 30 μl of the test solutions was applied. In a given group of animals the different solutions were applied in a randomized order alternating between sites. However, the same site was used for repeated application of a given solution.
The irritation was scored on scales of 0 to 3, each grade corresponding to the following specific criteria of irritation:
1=slight erythema or edema or no hair growth
2=moderate erythema or edema or skin discoloration
3=marked erythema or edema or necrosis including crust formation.
The scoring was carried out blindly using coded solutions.
The scores of all the applications for a given solution and time were added and the average score was calculated.
The solvent used was a mixture of glycerol 10.0% (w/v), Tween 80 0.1% and aq sterile ad 100. All solutions were adjusted to pH 6.5 with hydrochloric acid or aqueous sodium hydroxide as required. Thirty μl of 1.0% solutions of phosphonoformic acid and phosphonoacetic acid respectively was applied twice daily during three days to each of six guinea pigs.

cutaneous herpes type 1 = details: trisodium salt in topical preparations according to examples 15, 16 and 17; preliminary experiments

T2 sequence (P03359 642-1310): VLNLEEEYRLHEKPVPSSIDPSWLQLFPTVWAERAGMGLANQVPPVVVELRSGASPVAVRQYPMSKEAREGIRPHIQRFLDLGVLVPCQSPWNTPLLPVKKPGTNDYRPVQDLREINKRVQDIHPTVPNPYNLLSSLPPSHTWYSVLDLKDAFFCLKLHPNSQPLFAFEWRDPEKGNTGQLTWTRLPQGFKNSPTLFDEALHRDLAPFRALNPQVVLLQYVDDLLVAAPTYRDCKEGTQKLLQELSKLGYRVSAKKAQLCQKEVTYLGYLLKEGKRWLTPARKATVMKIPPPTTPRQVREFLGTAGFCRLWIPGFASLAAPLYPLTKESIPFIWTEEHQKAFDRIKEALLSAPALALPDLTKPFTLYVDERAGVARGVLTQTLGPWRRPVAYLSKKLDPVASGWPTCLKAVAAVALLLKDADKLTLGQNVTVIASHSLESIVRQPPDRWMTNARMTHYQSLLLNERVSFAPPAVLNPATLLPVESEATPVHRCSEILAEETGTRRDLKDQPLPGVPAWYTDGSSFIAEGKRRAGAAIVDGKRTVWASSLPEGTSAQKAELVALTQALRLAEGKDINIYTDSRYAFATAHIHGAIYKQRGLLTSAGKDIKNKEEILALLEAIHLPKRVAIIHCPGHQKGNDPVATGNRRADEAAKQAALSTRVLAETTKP
T1 sequence (P03361 546-1120): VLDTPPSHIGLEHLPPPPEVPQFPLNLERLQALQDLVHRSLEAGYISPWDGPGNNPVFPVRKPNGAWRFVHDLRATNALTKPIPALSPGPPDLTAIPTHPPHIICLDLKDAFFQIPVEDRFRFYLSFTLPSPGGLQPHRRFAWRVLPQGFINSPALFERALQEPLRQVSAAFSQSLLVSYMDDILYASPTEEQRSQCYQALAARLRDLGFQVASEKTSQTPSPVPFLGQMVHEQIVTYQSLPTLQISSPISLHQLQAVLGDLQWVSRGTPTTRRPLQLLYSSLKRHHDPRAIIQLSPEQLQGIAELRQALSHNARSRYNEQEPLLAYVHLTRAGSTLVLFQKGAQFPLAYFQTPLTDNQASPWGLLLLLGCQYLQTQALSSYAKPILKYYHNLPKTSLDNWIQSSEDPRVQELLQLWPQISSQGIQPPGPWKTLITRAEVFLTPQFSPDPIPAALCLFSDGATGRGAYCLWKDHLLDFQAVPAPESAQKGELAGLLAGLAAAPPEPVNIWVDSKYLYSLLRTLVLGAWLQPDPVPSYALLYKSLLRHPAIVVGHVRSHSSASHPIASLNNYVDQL
Micrococcus luteus DNA dependent DNA polymerase, sequence (C5CBM1 entry or part of it): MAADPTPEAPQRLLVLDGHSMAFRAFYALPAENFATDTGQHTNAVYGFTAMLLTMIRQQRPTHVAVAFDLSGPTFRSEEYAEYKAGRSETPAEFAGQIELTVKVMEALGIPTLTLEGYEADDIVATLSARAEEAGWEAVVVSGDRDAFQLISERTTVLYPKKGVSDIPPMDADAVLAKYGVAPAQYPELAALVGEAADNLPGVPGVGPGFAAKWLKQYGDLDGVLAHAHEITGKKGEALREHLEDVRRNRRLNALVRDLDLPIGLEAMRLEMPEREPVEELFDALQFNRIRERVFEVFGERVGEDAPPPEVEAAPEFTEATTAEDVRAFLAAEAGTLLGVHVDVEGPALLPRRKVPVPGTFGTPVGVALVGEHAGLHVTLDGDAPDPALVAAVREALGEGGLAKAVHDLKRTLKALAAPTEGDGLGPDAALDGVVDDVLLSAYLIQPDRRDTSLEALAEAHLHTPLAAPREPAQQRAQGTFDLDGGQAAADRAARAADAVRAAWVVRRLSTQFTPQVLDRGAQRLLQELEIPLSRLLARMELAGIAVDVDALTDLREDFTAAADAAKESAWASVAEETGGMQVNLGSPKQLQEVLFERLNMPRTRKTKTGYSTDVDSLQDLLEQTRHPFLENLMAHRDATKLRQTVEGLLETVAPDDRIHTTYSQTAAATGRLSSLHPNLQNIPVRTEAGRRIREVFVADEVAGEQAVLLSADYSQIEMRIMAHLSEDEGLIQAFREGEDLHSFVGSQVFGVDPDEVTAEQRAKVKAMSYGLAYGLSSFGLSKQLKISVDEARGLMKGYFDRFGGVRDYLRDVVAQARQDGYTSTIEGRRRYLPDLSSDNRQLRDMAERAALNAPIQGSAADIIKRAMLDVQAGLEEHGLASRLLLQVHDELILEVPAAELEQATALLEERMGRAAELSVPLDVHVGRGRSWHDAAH

## O=C(O)P(=O)(O)O [phosphonoformic acid]
[1]
  inhibition at 500 µM: -3%
[2]
  inhibition at 500 µM: 6%
[3]; 10 μM
  Percent inhibition: 90%
[3]; 100 μM
  Percent inhibition: 96%
[3]; 500 μM
  Percent inhibition: > 99%
[4]; 100 μM
  inhibition at 100 µM: 88%
[4]; 500 μM
  inhibition at 500 µM: 93%
[5]; 10 μM
  inhibition at 10 µM: 92%
[5]; 100 μM
  inhibition at 100 µM: > 99%
[5]; 500 μM
  inhibition at 500 µM: > 99%
HTLV-III; 300 μM, after six days of incubation
  inhibition at 300 µM: > 95%
HTLV-III; after 6 days of incubation, read-out: concentration giving 50% inhibition of HTLV-III replication
  IC50: 50 µM
[6]
  skin condition after two weeks: the skin is normal with hair after two weeks
Cutaneous herpes type 1
  therapeutic effect: has a therapeutic effect
